Data taken from patent US20260072027A1, “Peptides And Method” (Queen Mary University of London, priority 2022, published 2026).
Where no end group is shown, it is not given here. [ ]: non-standard residue; d: D form. Dopa = N[C@@H](Cc1ccc(O)c(O)c1)C(=O)O; Cya = N[C@@H](CS(=O)(=O)O)C(=O)O

How the values were obtained:
[1] = system: serum IgG autoantibodies; assay: ELISA for autoantibody detection: serum antibody binding to native and oxPTM insulin peptides; parameters: species or system human; conditions: for % binders, Healthy controls / Mean ± SEM (absorbance, OD), Healthy controls / % binders, Type 1 diabetes: Study cohort 1; for % binders, Type 1 diabetes: cut-off = mean of healthy controls to Nt-INSP plus 3 SEM; for Mean ± SEM (absorbance, OD), Type 1 diabetes: Study cohort 1 sera; for type 1 diabetes binders (IgG autoantibody reactivity): Study cohort 2, N = 18
Procedure: ELISA for autoantibody detection. The ELISA analysis of Nt-INS and oxPTM-INS autoantibodies was performed as previously described [18](detailed in ESM methods, ELISA assay for antibody detection).
Statistical analyses. Statistical analyses were performed using Prism Software 9.0 (GraphPad, San Diego, CA, USA). Cut-off points of positivity (binders) in the antibody ELISA for each peptide were defined by the mean of optical absorbance (O.D) of healthy controls to the corresponding Nt-INSP plus three times the standard error of the mean (SEM). Specificity and sensitivity were evaluated by receiver operating characteristic (ROC) curve analysis. Area under the curve (AUC) is reported as absolute value and was tested for equality according to DeLong et al. Differences in antibody levels and T-cell stimulation indices (SI) between groups were tested by the One way ANOVA or Student's t-tests as appropriate. Correlation analyses were tested by Pearson or Spearman's test, as appropriate. Categorical analyses were performed by Chi-square or McNemar's tests, as appropriate. For each set of experiments, p values were adjusted for multiple comparison using the Holm-Sidak's test. Hierarchical cluster and Principal Component Analysis (PCA) was done using Clustvis software (https://biit.cs.ut.ee/clustvis/) and Prism Software 9.0, respectively.
Antibody reactivity of type 1 diabetes serum against the candidate oxPTM-INSP. Identified peptide candidates were synthesised and exposed to either HOCl or ^●OH to generate oxPTM-INSPs that were first assessed by TOF-MS/ES+TIC to confirm modification (FIG. 17). Antibody response against native INSPs (Nt-INSPs) and oxPTM-INSPs was evaluated by ELISA using sera from Study cohort 1.
ESM Methods ELISA assay for antibody detection. The ELISA analysis of native (Nt-INS) and modified insulin (oxPTM-INS) was performed as previously described. Briefly, the ELISA plate was coated overnight at 4° C. with 100 μl per well of modified or native insulin in 0.05 M carbonate/bicarbonate buffer pH 9.6 at 10 μg/ml. The next day, the plates were washed 3 times with 0.1% Tween PBS, followed by blocking for 2 hours at room temperature with 200 μl per well of 5% BSA in 0.1% Tween PBS. After washing, 100 μl of 1:200-diluted serum samples in 5% BSA-0.1% Tween PBS were added for additional 2 hours incubation. ELISA plates were then washed 3 times with 0.1% Tween PBS followed by probing with anti-human IgG horse radish peroxidase conjugated (HRP, Sigma) at 1:1,000 dilution in 5% BSA-0.1% Tween PBS for another 1.5 hours incubation. The ELISA plates were washed, and 100 μg/ml TMB substrate in 0.1M sodium acetate pH 6.0 plus 2 μl/10 ml of H2O2, were added. Subsequently, the reaction was stopped with 20% v/v sulphuric acid. The optical density (O.D.) was measured at 450 nm using a GENios plate reader and Magellan software (TECAN, Dorset, UK).

[2] = system: autoantibodies to oxPTM-INS; assay: Competitive displacement ELISA, plate coated with oxidised insulin; type: binding, human
Procedure: A competitive displacement assay was performed to map the exact epitope, namely the exact amino acid sequence binding specificities and to test the binding to native peptides versus oxidised insulin peptides. The binding to the peptide was done by direct ELISA on the native or modified peptides or by competition ELISA. Initially native synthetic peptide was oxidised by exposing to 0.05 mM CuCl2; 90 mM H2O2; 10 mM NaOCl. Native and modified peptides were fractionated by AKTA to evaluated changes in molecular profile. AKTA fractions were then tested by ELISA for reactivity (FIGS. 2 and 3). We next perform competition ELISA with the native peptides and peptides exposed to 0.05 mM CuCl2; 90 mM H2O2; 10 mM NaOCl. Serum samples were pre-incubated with either native insulin peptides or oxidised insulin peptides. Finally, based on the amino acid sequence of the identified peptides we predicted the amino acids that would be oxidised by ^●OH and HOCl and designed synthetic peptides that contain the oxidised amino acids in the synthesis. Synthetic peptides were produced by standard commercially available methods, specifically by Peptide Protein Research Ltd. Briefly, peptide synthesis was performed by automated solid phase peptide synthesis (SPPS), which was followed by purification. Each individual amino acid was added to the growing chain according to the sequence. Where specified, dihydroxyphenylalanine was added to replace Tyr or cysteate were added to replace Cys. Similarly, these peptides were tested by competition ELISA. The table below describe the different competition ELISA performed:
Serum samples from children with type 1 diabetes were pre-incubated with the synthetic peptides before they were added to the native insulin or oxidised that were previously coated on the ELISA plate. If the antibodies in the serum sample bind to the peptide they will no longer bind to the insulin or oxidised insulin on the plate-competition ELISA. 1:200 dilutions of serum samples from T1D serum samples were pre-incubated for 2 hr at room temperature with the various peptides as shown in the table above. After incubation, serum/peptide mix was added to the ELISA plate previously coated overnight with either native insulin or oxidised insulin for an additional 2 hr incubation. Plates were then washed in a plate washer three times with PBS 0.05% tween. After washing, 100 ul of anti-human IgG diluted 1:1000 in 1% milk-PBS 0.05% tween were added for additional 1 hour and 30 min incubation. After washing, ELISA was developed by adding 100 ul of TMB (10 mg/ml in DMSO) in 10 ml of 0.1 M sodium acetate plus 2 ul of H2O2. Reaction was stopped by adding 0.5 M H2SO4 (usually 20 min for insulin ELISA).
To assess the binding specificity of serum samples to identified peptides, a competitive ELISA was performed. The ELISA was carried out following the method described above, except that the serum samples were pre-incubated for 2 h with and without 10 μg/ml peptides as competitors, before adding the serum samples to the insulin coated ELISA plate.

[3] = system: CD4+ T-cells (PBMCs); assay: In vitro peptide stimulation and T-cell proliferation assay, CD4+; type: cell-based, human
Text: (§1) In vitro peptide stimulation and T-cell proliferation assay. Peripheral blood mononuclear cells (PBMCs) were freshly isolated from type 1 diabetes and healthy individuals using Ficoll-Hypaque density gradient centrifugation. PBMCs were labelled with the fluorescent dye CellTrace Violet (Invitrogen, Thermo Fisher Scientific) and cultured (2×10^5 cells/well) in round-bottom 96-well plates (Falcon, Becton Dickinson) with RPMI-1640 medium (Gibco, Thermo Fisher Scientific) supplemented with 5% autologous plasma in the presence or not of insulin peptides (20 μg/ml); PPD (10 μg/ml) and anti-CD3 (0.1 μg/ml; clone OKT3) were used as positive control. Two scrambled peptides: […] (SEQ ID NO: 17), […] (SEQ ID NO: 18), and the Exendin 9-39 fragment were used as negative controls. After 7 days, PBMCs were stained with PE-Cy7 anti-CD8 (clone RPA-T8, BD Pharmingen) and FITC anti-CD3 (clone UCHT1, BD Pharmingen). Samples were analysed by using a FACSCanto II (BD Bioscience) to evaluate T-cell proliferation measured as CellTrace Violet dilution. Cytofluorimetric analyses were performed using FlowJo Software (FlowJo, LLC). The results were given as stimulation index (SI), calculated as percentage of stimulated T-cell subset proliferation/percentage of unstimulated T-cell subset proliferation. Assay for detection of peptide specific T cells subsets was done as previously described (detailed in ESM methods, Assay for detection of peptide specific T cells)
(§2) T-cell stimulation with oxPTM-INSPs. To evaluate the immune cell response against the oxPTM-INSPs, we performed CD4+ and CD8+ T cells proliferation experiments using freshly isolated PBMCs (Study cohort 2, Table 1). Response was calculated as stimulatory index (SI) over unstimulated T-cells.

[4] = system: CD8+ T-cells (PBMCs); assay: In vitro peptide stimulation and T-cell proliferation assay, CD8+; type: cell-based, human
Text: as §1, §2

% binders, Healthy controls ([1]; in silico modifications) | Mean ± SEM (absorbance, OD), Healthy controls ([1]; in silico modifications) | % binders, Type 1 diabetes ([1]; in silico modifications) | Mean ± SEM (absorbance, OD), Type 1 diabetes ([1]; in silico modifications) | Substance | CD4+ T-cell response, subjects with SI > 3 (%) ([3]; Type 1 diabetes (N = 18)) | CD4+ T-cell response, subjects with SI > 1 (%) ([3]; Controls (N = 11)) | CD4+ T-cell response, subjects with SI > 3 (%) ([3]; Controls (N = 11)) | CD4+ T-cell response, subjects with SI > 5 (%) ([3]; Controls (N = 11)) | CD4+ T-cell response, subjects with SI > 10 (%) ([3]; Controls (N = 11)) | CD4+ T-cell response, subjects with SI > 1 (%) ([3]; Type 1 diabetes (N = 18)) | CD4+ T-cell response, subjects with SI > 5 (%) ([3]; Type 1 diabetes (N = 18)) | CD4+ T-cell response, subjects with SI > 10 (%) ([3]; Type 1 diabetes (N = 18)) | CD8+ T-cell response, subjects with SI > 1 (%) ([4]; Controls (N = 11)) | CD8+ T-cell response, subjects with SI > 3 (%) ([4]; Controls (N = 11)) | CD8+ T-cell response, subjects with SI > 5 (%) ([4]; Controls (N = 11)) | CD8+ T-cell response, subjects with SI > 10 (%) ([4]; Controls (N = 11)) | CD8+ T-cell response, subjects with SI > 1 (%) ([4]; Type 1 diabetes (N = 18)) | CD8+ T-cell response, subjects with SI > 3 (%) ([4]; Type 1 diabetes (N = 18)) | CD8+ T-cell response, subjects with SI > 5 (%) ([4]; Type 1 diabetes (N = 18)) | CD8+ T-cell response, subjects with SI > 10 (%) ([4]; Type 1 diabetes (N = 18)) | also measured
16% | 0.263 ± 0.020 | 63% | 0.423 ± 0.012 | ERGFFYTPKT (Ac-ERGFFYTPKT) [insulin B:21-30 native peptide] | – | – | – | – | – | – | – | – | – | – | – | – | – | – | – | – | % binders, Healthy controls ([1]; in house modifications): 10%; Mean ± SEM (absorbance, OD), Healthy controls ([1]; in house modifications): 0.263 ± 0.023; % binders, Type 1 diabetes ([1]; in house modifications): 66%; Mean ± SEM (absorbance, OD), Type 1 diabetes ([1]; in house modifications): 0.435 ± 0.014; reduced binding to oxidised whole insulin ([2]; type 1 diabetes sera pre-incubated with peptide): 35-70%
– | – | – | – | Nt-INSP-6: native insulin peptide 6; printed as ERGFFYTPKT (SEQ ID NO: 5) and, in Tables 5 and 6, ERGFFYTPKTR (SEQ ID NO: 8) | 27.8% | – | – | – | – | – | – | – | – | – | – | – | – | – | – | – | type 1 diabetes binders (IgG autoantibody reactivity) [1]: none; inhibition of type 1 diabetes serum binding to oxPTM-INS (in words) ([2]; sera pre-incubated with peptide competitor): not
25% | 0.351 ± 0.044 | 100% | 0.556 ± 0.031 | ERGYYYTPKT (Ac-ERGYYYTPKT) [in silico designed oxPTM-INSP-6 derivative] | (22.2%) | (36.4%) | (18.2%) | (9.1%) | (0.0%) | (50.0%) | (0.0%) | (0.0%) | (27.3%) | (18.2%) | (18.2%) | (9.1%) | (22.2%) | (11.1%) | (11.1%) | (5.6%) | –
17% | 0.154 ± 0.006 | 54% | 0.228 ± 0.016 | SL-DOPA-QLENY-Cysteate-N (SL[Dopa]QLENY[Cya]N) [in silico designed oxPTM-INSP-3 derivative] | (16.7%) | (54.5%) | (18.2%) | (18.2%) | (0.0%) | (50.0%) | (10.5%) | (5.6%) | (36.4%) | (27.3%) | (27.3%) | (18.2%) | (44.4%) | (27.8%) | (16.7%) | (5.6%) | –
30% | 0.357 ± 0.030 | 100% | 0.536 ± 0.021 | ERGYY-DOPA-TPKT (ERGYY[Dopa]TPKT) [in silico designed oxPTM-INSP-6 derivative] | (5.6%) | (27.3%) | (0.0%) | (0.0%) | (0.0%) | (50.0%) | (5.2%) | (5.6%) | (18.2%) | (9.10%) | (0.0%) | (0.0%) | (27.8%) | (0.0%) | (0.0%) | (0.0%) | type 1 diabetes binders (IgG autoantibody reactivity) [1]: 55.5%
